Assay results taken from patent US9717718B2, “Anti-inflammatory compounds” (Phytoquest Limited, priority 2011, dated 2017).
Entries after “also recorded” stand apart in the source; their conditions may differ.

Assays:
[1] = system: α-D-mannosidase; assay: Glycosidase assay, α-D-mannosidase; assay type: biochemical; conditions: 0.2 mM; for percentage inhibition, α-D-mannosidase: negative value = stabilisation or promotion
Method: (§1) All enzymes and para-nitrophenyl substrates were purchased from Sigma, with the exception of beta-mannosidase which came from Megazyme. Enzymes were assayed at 27° C. in 0.1 M citric acid/0.2M disodium hydrogen phosphate buffers at the optimum pH for the enzyme. The incubation mixture consisted of 10 μl enzyme solution, 10 μl of 1 mg/ml aqueous solution of sample and 50 μl of the appropriate 5 mM para-nitrophenyl substrate made up in buffer at the optimum pH for the enzyme. […] Final absorbances were read at 405 nm using a Versamax microplate reader (Molecular Devices). Assays were carried out in triplicate, and the values given are means of the three replicates per assay.

[2] = system: N-acetyl-β-D-gluc (Bovine kidney); assay: Glycosidase assay, N-acetyl-β-D-gluc (Bovine kidney); assay type: biochemical; conditions: 0.2 mM; negative value = stabilisation or promotion
Method: as §1

[3] = system: α-L-fucosidase; assay: Glycosidase assay, α-L-fucosidase; assay type: biochemical; conditions: 0.2 mM
Method: as §1

[4] = system: N-acetyl-β-D-gluc (Jack bean); assay: Glycosidase assay, N-acetyl-β-D-gluc (Jack bean); assay type: biochemical; conditions: 0.2 mM; negative value = stabilisation or promotion
Method: as §1

[5] = system: Naringinase; assay: Glycosidase assay, Naringinase; assay type: biochemical; conditions: 0.2 mM
Method: (§2) Enzymes were assayed at 27° C. in 0.1 M citric acid/0.2M disodium hydrogen phosphate buffers at the optimum pH for the enzyme. The incubation mixture consisted of 10 μl enzyme solution, 10 μl of 1 mg/ml aqueous solution of sample and 50 μl of the appropriate 5 mM para-nitrophenyl substrate made up in buffer at the optimum pH for the enzyme. […] Final absorbances were read at 405 nm using a Versamax microplate reader (Molecular Devices). Assays were carried out in triplicate, and the values given are means of the three replicates per assay.

[6] = target: T1, α-D-glucosidase (Yeast) (Saccharomyces cerevisiae, UniProt P53341); assay: Glycosidase assay, α-D-glucosidase (Yeast); assay type: biochemical; conditions: 0.2 mM, negative value = stabilisation or promotion of enzyme activity
T1 construct: purchased Sigma
Method: as §1

[7] = system: α-D-galactosidase; assay: Glycosidase assay, α-D-galactosidase; assay type: biochemical; conditions: 0.2 mM; negative value = stabilisation or promotion
Method: as §1

[8] = system: β-D-galactosidase; assay: Glycosidase assay, β-D-galactosidase; assay type: biochemical; conditions: 0.2 mM
Method: as §1

[9] = target: T2, Amyloglucosidase (Aspergillus niger, UniProt P69328); assay: Glycosidase assay, Amyloglucosidase; assay type: biochemical; conditions: 0.2 mM
T2 construct: purchased Sigma
Method: as §2

[10] = target: T3, α-D-glucosidase (Rice) (Oryza sativa subsp. japonica, UniProt Q653V7); assay: Glycosidase assay, α-D-glucosidase (Rice); assay type: biochemical; conditions: 0.2 mM
T3 construct: purchased Sigma
Method: as §2

[11] = system: β-D-glucosidase; assay: Glycosidase assay, β-D-glucosidase; assay type: biochemical; conditions: 0.2 mM
Method: as §1

[12] = system: α-D-glucosidase (Bacillus); assay: Glycosidase assay, α-D-glucosidase (Bacillus); assay type: biochemical; conditions: 0.2 mM
Method: as §1

[13] = system: β-D-mannosidase; assay: Glycosidase assay, β-D-mannosidase; assay type: biochemical; conditions: 0.2 mM; negative value = stabilisation or promotion
Method: as §2

[14] = system: glucosidases; assay: Glycosidase panel, summary in words for glucosidases; assay type: biochemical; conditions: 0.2 mM
Method: as §1

[15] = system: N-acetyl-β-D-hexosaminidase; assay: Glycosidase assay, N-acetyl-β-D-hexosaminidase; assay type: biochemical; conditions: 0.2 mM; negative value = stabilisation or promotion
Method: as §2

[16] = system: β-glucuronidase; conditions: 0.2 mM
Method: as §1

[17] = system: equine endometrial explant, Prostaglandin F2α (PGF2α) secretion; assay: In vitro equine endometrial explant culture, LPS-stimulated PGF2α secretion; assay type: cell-based, horse
Method: The efficacy of ido-BR1 as an anti-inflammatory agent in a model of mucosal inflammation was tested. The model utilised was previously optimised and established (D M Nash, E A. Lane, S Herath and I M Sheldon (2008) Endometrial Explant Culture for Characterizing Equine Endometritis. American Journal of Reproductive Immunology. 59: 105-117). The model is comprised of an in vitro equine endometrial explant tissue culture system. […]
Uterine tissue was collected from mares at an abattoir, the endometrial (mucosal) surface was dissected out, […] placed in culture as explants. […] The secretion of PGF2α is measured at 24 and 72 h after challenge with LPS in order to represent the innate and chronic immune response respectively.
Explants were treated with control (media alone) or, in order to determine whether ido-BR1 affected spontaneous PGF2α, 0.5, 25 or 100 μg/ml ido-BR1 alone. […] The secretion of PGF2α was measured at 24 and 72 h after treatments were applied. […]

T1 sequence (P53341 whole entry): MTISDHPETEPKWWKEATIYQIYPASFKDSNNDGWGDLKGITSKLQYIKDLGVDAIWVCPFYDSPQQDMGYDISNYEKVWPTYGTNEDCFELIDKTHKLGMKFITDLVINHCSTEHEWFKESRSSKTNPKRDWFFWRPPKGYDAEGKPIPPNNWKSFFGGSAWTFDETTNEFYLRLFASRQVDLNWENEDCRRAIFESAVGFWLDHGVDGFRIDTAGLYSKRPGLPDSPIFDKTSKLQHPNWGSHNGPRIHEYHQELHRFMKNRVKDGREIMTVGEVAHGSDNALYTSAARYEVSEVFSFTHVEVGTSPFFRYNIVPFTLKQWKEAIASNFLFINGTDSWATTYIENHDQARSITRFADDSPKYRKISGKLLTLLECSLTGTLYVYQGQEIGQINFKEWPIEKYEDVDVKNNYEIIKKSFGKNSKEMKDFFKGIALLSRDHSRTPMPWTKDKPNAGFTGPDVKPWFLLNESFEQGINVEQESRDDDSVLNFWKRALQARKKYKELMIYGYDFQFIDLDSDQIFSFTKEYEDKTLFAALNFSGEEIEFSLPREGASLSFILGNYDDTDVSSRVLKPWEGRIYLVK
T3 sequence (Q653V7 34-885): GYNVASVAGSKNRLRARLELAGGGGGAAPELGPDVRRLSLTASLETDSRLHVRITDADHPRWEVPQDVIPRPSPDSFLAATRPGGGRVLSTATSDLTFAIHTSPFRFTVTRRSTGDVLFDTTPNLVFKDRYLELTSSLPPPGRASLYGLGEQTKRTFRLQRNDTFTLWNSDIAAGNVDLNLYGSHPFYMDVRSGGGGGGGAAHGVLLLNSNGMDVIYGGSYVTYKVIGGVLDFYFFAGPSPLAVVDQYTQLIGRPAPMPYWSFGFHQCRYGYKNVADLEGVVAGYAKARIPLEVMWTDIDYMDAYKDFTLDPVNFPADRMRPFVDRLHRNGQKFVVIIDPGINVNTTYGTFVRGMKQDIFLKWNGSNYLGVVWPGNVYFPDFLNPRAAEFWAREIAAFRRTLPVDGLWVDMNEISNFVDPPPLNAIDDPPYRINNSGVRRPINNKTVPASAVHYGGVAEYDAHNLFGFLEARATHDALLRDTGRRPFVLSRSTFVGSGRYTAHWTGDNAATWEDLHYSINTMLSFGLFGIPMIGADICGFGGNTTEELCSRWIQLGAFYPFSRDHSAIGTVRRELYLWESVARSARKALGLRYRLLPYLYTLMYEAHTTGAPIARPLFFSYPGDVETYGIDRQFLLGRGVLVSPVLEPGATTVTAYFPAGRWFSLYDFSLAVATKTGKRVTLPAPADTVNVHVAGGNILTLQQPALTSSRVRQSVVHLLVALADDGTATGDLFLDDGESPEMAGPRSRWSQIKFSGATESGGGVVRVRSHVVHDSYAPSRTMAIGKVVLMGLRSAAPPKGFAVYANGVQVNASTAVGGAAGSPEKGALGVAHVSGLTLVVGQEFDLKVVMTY
T2 sequence (P69328 25-640): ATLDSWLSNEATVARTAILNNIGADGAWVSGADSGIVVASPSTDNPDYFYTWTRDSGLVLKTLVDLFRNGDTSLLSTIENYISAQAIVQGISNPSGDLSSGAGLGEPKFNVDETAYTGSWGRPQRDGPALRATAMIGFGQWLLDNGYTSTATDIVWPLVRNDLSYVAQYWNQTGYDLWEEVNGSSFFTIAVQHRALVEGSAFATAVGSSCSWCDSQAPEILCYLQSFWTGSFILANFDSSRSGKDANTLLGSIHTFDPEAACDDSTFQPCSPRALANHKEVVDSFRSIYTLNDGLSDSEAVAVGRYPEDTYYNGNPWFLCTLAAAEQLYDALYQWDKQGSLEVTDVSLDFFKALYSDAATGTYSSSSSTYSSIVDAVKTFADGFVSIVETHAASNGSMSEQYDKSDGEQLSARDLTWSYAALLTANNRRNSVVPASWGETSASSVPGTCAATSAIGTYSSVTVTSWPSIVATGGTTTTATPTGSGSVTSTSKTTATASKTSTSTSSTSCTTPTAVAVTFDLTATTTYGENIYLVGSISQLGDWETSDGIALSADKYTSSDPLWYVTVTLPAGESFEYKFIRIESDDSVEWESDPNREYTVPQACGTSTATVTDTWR

| SMILES | percentage inhibition, α-D-mannosidase [1] [%] | percentage inhibition, N-acetyl-β-D-gluc (Bovine kidney) [2] [%] | percentage inhibition, N-acetyl-β-D-gluc (Jack bean) [4] [%] | percentage inhibition, α-D-galactosidase [7] [%] | percentage inhibition, β-D-galactosidase [8] [%] | percentage inhibition, β-D-glucosidase [11] [%] | percentage inhibition, α-D-glucosidase (Bacillus) [12] [%] | percentage inhibition, β-D-mannosidase [13] [%] | inhibition of glucosidases (in words) [14] | also measured |
| --- | --- | --- | --- | --- | --- | --- | --- | --- | --- | --- |
| OC[C@H]1NC[C@H](O)[C@@H](O)[C@@H]1O [DNJ, reference compound] | 26.6 | −0.8 | 2.8 | −3.3 | 0.4 | 63.7 | 99.5 | −19.0 | potent inhibition | percentage inhibition, α-L-fucosidase [3]: 5.9%; percentage inhibition, Naringinase [5]: 20.8%; percentage inhibition, α-D-glucosidase (Yeast) [6]: 35.7%; percentage inhibition, Amyloglucosidase [9]: 31.7%; percentage inhibition, α-D-glucosidase (Rice) [10]: 99.6%; percentage inhibition, N-acetyl-β-D-hexosaminidase [15]: −5.5% |
| O=C(O)[C@@H]1NC[C@H](O)[C@@H](O)[C@@H]1O [ido-BR1, (2R,3R,4R,5S)-3,4,5-trihydroxypiperidine-2-carboxylic acid] | −28.4 | 5.5 | −4.5 | −2.7 | 1.0 | 6.1 | 26.4 | −4.4 | very weakly inhibitory | effect on alpha-mannosidase activity (in words) [1]: promote alpha-mannosidase activity slightly; inhibition of glucuronidase (in words) [16]: not inhibitory; percentage inhibition, β-glucuronidase [16]: 2.5%; PGF2α secretion by LPS-challenged explants versus control (abrogation of inflammation) ([17]; 3.0 μg/ml LPS with 0.5, 25 or 100 μg/ml ido-BR1, 24 h): not significantly different to the control; also recorded: abrogated inflammation in the explants; abrogation of LPS-stimulated PGF2α secretion ([17]; 3.0 μg/ml LPS with ido-BR1, 72 h): not significant; inhibition at 200 µM ([6]; read-out: percentage inhibition, α-D-glucosidase (Yeast)): 4.7% |
